Patent US10597388B2, “Pyridazinone herbicides” (FMC CORPORATION, priority 2014, dated 2020)

Experiments:
Test in all cases: Test C greenhouse herbicide test, pre- and postemergence
Type in all cases: in vivo
[1] = tested on: pigweed (Amaranthus retroflexus)
Text: (§1) Seeds of plant species selected from blackgrass (Alopecurus myosuroides), ryegrass, Italian (Italian ryegrass, Lolium multiflorum), wheat (winter wheat, Triticum aestivum), galium (catchweed bedstraw, Galium aparine), corn (Zea mays), large crabgrass, large (large crabgrass, Digitaria sanguinalis), foxtail, giant (giant foxtail, Setaria faberii), johnsongrass (Sorghum halepense), lambsquarters (Chenopodium album), morningglory (Ipomoea coccinea), nutsedge, yellow (yellow nutsedge, Cyperus esculentus), pigweed (Amaranthus retroflexus), ragweed (common ragweed, Ambrosia elatior), soybean (Glycine max), barnyardgrass (Echinochloa crus-galli), oilseed rape (Brassica napus), waterhemp (common waterhemp, Amaranthus rudis), and velvetleaf (Abutilon theophrasti) were planted into a blend of loam soil and sand and treated preemergence with test chemicals formulated in a non-phytotoxic solvent mixture which included a surfactant.
(§2) At the same time, plants selected from these crop and weed species and also chickweed (common chickweed, Stellaria media), kochia (Kochia scoparia), and oat, wild (wild oat, Avena fatua), were planted in pots containing Redi-Earth® planting medium (Scotts Company, 14111 Scottslawn Road, Marysville, Ohio 43041) comprising spaghnum peat moss, vermiculite, wetting agent and starter nutrients and treated with postemergence applications of test chemicals formulated in the same manner. Plants ranged in height from 2 to 18 cm (1- to 4-leaf stage) for postemergence treatments. Treated plants and controls were maintained in a greenhouse for 13 to 15 d, after which time all species were compared to controls and visually evaluated. Plant response ratings, summarized in Table C, are based on a scale of 0 to 100 where 0 is no effect and 100 is complete control. A dash (-) response means no test result.

[2] = tested on: ryegrass, Italian (Italian ryegrass, Lolium multiflorum)
Text: as §1, §2

[3] = tested on: ragweed (common ragweed, Ambrosia elatior)
Text: as §1, §2

[4] = tested on: barnyardgrass (Echinochloa crus-galli)
Text: as §1, §2

[5] = tested on: johnsongrass (Sorghum halepense)
Text: as §1, §2

[6] = tested on: galium (catchweed bedstraw, Galium aparine)
Text: as §1, §2

[7] = tested on: blackgrass (Alopecurus myosuroides)
Text: as §1, §2

[8] = tested on: lambsquarters (Chenopodium album)
Text: as §1, §2

[9] = tested on: morningglory (Ipomoea coccinea)
Text: as §1, §2

[10] = tested on: wheat (winter wheat, Triticum aestivum)
Text: as §1, §2

[11] = tested on: waterhemp (common waterhemp, Amaranthus rudis)
Text: as §1, §2

[12] = tested on: corn (Zea mays)
Text: as §1, §2

[13] = tested on: soybean (Glycine max)
Text: as §1, §2

[14] = tested on: foxtail, giant (giant foxtail, Setaria faberii)
Text: as §1, §2

[15] = tested on: velvetleaf (Abutilon theophrasti)
Text: as §1, §2

[16] = Postemergence, 31 g ai/ha, 0 to 100 scale (0 no effect, 100 complete control)
[17] = Postemergence, 125 g ai/ha, scale 0 to 100, 0 is no effect, 100 is complete control
[18] = Postemergence, 250 g ai/ha, scale 0 to 100, 0 no effect, 100 complete control, 13 to 15 d
[19] = postemergence, 62 g ai/ha, scale 0 to 100, 0 no effect, 100 complete control

CC(=O)Oc1c(C)nn(C)c(=O)c1-c1c(C)oc2ccc(C)cc12 [Compound 14, 5-(acetyloxy)-4-(2,5-dimethyl-3-benzofuranyl)-2,6-dimethyl-3(2H)-pyridazinone]
60: Ryegrass, Italian plant response rating [2, 19] | Plant response rating, Barnyardgrass [4, 18]
90: Plant response rating, Pigweed [1, 18] | Ragweed plant response rating [3, 19] | Plant response rating, Galium [6, 18] | Plant response rating, Lambsquarters [8, 18]
10: Waterhemp plant response rating [11, 19] | Velvetleaf plant response rating [15, 16]
5: Barnyardgrass plant response rating [4, 16] | Barnyardgrass plant response rating [4, 19] | Plant response rating, Johnsongrass [5, 18] | Plant response rating, Blackgrass [7, 17] | Plant response rating, Wheat [10, 17] | Plant response rating, Wheat [10, 18] | Waterhemp plant response rating [11, 16] | Plant response rating, Corn [12, 18] | Plant response rating, Soybean [13, 17] | Plant response rating, Soybean [13, 18]
0: Johnsongrass plant response rating [5, 16] | Plant response rating, Johnsongrass [5, 17] | Johnsongrass plant response rating [5, 19] | Blackgrass plant response rating [7, 16] | Blackgrass plant response rating [7, 19] | Wheat plant response rating [10, 16] | Wheat plant response rating [10, 19] | Corn plant response rating [12, 16] | Plant response rating, Corn [12, 17] | Corn plant response rating [12, 19] | Soybean plant response rating [13, 16] | Soybean plant response rating [13, 19]
40: Ryegrass, Italian plant response rating [2, 16] | Plant response rating, Waterhemp [11, 18] | Plant response rating, Velvetleaf [15, 17] | Plant response rating, Velvetleaf [15, 18]
70: Plant response rating, Pigweed [1, 17] | Pigweed plant response rating [1, 19]
55: Pigweed plant response rating [1, 16] | Plant response rating, Barnyardgrass [4, 17] | Galium plant response rating [6, 19]
98: Plant response rating, Ragweed [3, 18]
45: Foxtail, Giant plant response rating [14, 19]
65: Plant response rating, Ryegrass, Italian [2, 17] | Morningglory plant response rating [9, 16]
15: Ragweed plant response rating [3, 16]
100: Plant response rating, Morningglory [9, 17] | Plant response rating, Morningglory [9, 18]
50: Plant response rating, Ragweed [3, 17] | Galium plant response rating [6, 16] | Plant response rating, Waterhemp [11, 17] | Plant response rating, Foxtail, Giant [14, 17] | Plant response rating, Foxtail, Giant [14, 18]
20: Plant response rating, Blackgrass [7, 18] | Foxtail, Giant plant response rating [14, 16] | Velvetleaf plant response rating [15, 19]
80: Plant response rating, Galium [6, 17] | Lambsquarters plant response rating [8, 16] | Plant response rating, Lambsquarters [8, 17] | Lambsquarters plant response rating [8, 19]
85: Plant response rating, Ryegrass, Italian [2, 18] | Morningglory plant response rating [9, 19]

CC(=O)Oc1c(C)nn(C)c(=O)c1-c1c(C)oc2c(C)cc(C)cc12 [Compound 16, 5-(acetyloxy)-2,6-dimethyl-4-(2,5,7-trimethyl-3-benzofuranyl)-3(2H)-pyridazinone]
30: Plant response rating, Pigweed [1, 17] | Pigweed plant response rating [1, 19] | Plant response rating, Ragweed [3, 18]
50: Plant response rating, Pigweed [1, 18] | Ryegrass, Italian plant response rating [2, 19] | Morningglory plant response rating [9, 19]
55: Foxtail, Giant plant response rating [14, 16]
70: Plant response rating, Ryegrass, Italian [2, 18] | Plant response rating, Barnyardgrass [4, 17] | Barnyardgrass plant response rating [4, 19] | Plant response rating, Foxtail, Giant [14, 17]
90: Plant response rating, Barnyardgrass [4, 18]
80: Plant response rating, Galium [6, 18] | Galium plant response rating [6, 19] | Plant response rating, Foxtail, Giant [14, 18]
60: Plant response rating, Ryegrass, Italian [2, 17] | Galium plant response rating [6, 16] | Lambsquarters plant response rating [8, 19] | Plant response rating, Morningglory [9, 17] | Foxtail, Giant plant response rating [14, 19]
35: Plant response rating, Velvetleaf [15, 18]
85: Plant response rating, Galium [6, 17]
20: Plant response rating, Lambsquarters [8, 18] | Plant response rating, Velvetleaf [15, 17]
10: Ryegrass, Italian plant response rating [2, 16] | Lambsquarters plant response rating [8, 16]
45: Morningglory plant response rating [9, 16]
0: Ragweed plant response rating [3, 16] | Plant response rating, Ragweed [3, 17] | Ragweed plant response rating [3, 19] | Johnsongrass plant response rating [5, 16] | Plant response rating, Johnsongrass [5, 17] | Johnsongrass plant response rating [5, 19] | Blackgrass plant response rating [7, 16] | Wheat plant response rating [10, 16] | Plant response rating, Wheat [10, 17] | Plant response rating, Wheat [10, 18] | Wheat plant response rating [10, 19] | Corn plant response rating [12, 16] | Plant response rating, Corn [12, 17] | Plant response rating, Corn [12, 18] | Corn plant response rating [12, 19] | Soybean plant response rating [13, 16] | Plant response rating, Soybean [13, 17] | Plant response rating, Soybean [13, 18] | Soybean plant response rating [13, 19]
40: Pigweed plant response rating [1, 16] | Plant response rating, Blackgrass [7, 18] | Plant response rating, Lambsquarters [8, 17] | Plant response rating, Morningglory [9, 18]
5: Barnyardgrass plant response rating [4, 16] | Plant response rating, Johnsongrass [5, 18] | Plant response rating, Blackgrass [7, 17] | Blackgrass plant response rating [7, 19] | Waterhemp plant response rating [11, 16] | Plant response rating, Waterhemp [11, 17] | Plant response rating, Waterhemp [11, 18] | Waterhemp plant response rating [11, 19] | Velvetleaf plant response rating [15, 16] | Velvetleaf plant response rating [15, 19]
